Experiment [1] concerns the target T1, COX-2 (Mus musculus, UniProt Q05769).
T1 construct: host or cells: RAW 264.7 cells, aspirin-pretreated, then induced with interferon gamma and LPS
T1 sequence (Q05769 18-604): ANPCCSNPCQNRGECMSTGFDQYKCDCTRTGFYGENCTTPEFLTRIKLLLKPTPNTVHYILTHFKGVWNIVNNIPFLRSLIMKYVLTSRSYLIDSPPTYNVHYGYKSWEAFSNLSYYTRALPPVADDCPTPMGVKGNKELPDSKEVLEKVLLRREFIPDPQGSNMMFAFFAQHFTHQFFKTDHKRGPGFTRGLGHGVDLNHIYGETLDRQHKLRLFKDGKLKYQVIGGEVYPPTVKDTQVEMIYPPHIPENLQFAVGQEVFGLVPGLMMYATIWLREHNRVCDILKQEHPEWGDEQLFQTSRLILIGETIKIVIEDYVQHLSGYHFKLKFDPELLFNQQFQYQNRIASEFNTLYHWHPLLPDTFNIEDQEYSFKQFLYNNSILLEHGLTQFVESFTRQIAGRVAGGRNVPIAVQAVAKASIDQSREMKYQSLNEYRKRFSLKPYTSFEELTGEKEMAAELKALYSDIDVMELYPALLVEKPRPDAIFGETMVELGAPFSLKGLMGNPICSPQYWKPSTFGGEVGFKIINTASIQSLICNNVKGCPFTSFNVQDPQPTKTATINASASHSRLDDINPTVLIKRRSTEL
In words: Assay for the COX-2 inhibitory activity using RAW 264.7 cell line (PGE2 inhibition). The class given is cell-based. The note with it: RAW264.7, 10 nM test compound, RAW 264.7 cells, interferon γ and LPS, 18 hours, read-out: Cyclooxygenase (COX) Inhibition (%) COX-2 (10 nM). The procedure: Each well was treated with 250 μM of aspirin and incubated at 37° C. for 2 hours. After the culture media were replaced with new culture media, the new culture media were treated with a test compound (10 nM) and incubated for 30 minutes. Then, each well was treated with interferon γ (100 units/ml) and lipopolysaccharide (LPS, 100 ng/ml) and incubated for 18 hours. The culture media were transferred to other test tubes. The concentration of PGE2 was quantified by means of the EIA kit (Cayman Chemicals).
(§1) The percentages of the COX inhibition were calculated according to the following equation: % Inhibition=(concentration of PGE2 in test compound-untreated sample−concentration of PGE2 in test compound-treated sample)/(concentration of PGE2 in test compound-untreated sample)×100

Experiment [2] addresses T2, COX-1 (Homo sapiens, UniProt P23219).
T2 construct: host or cells: U-937 human lymphoma cells
In words: Assay for the COX-1 inhibitory activity using U-937 (PGE2 inhibition). Format: cell-based. The note with it: 1 μM test compound; U-937 human lymphoma cells; PGE2 after arachidonic acid; read-out: Cyclooxygenase (COX) Inhibition (%) COX-1 (1 μM). The procedure:
The collected cells were diluted with HBSS (×1, Hank's balanced salt solution) to a concentration of 1×10^6 cells/ml. 1 ml of the dilute cell solution was placed into each well of 12-well plates. 5 μl of 1 μM solution of a test compound in DMSO and 5 μl of DMSO as a control were added to the wells. The wells were incubated in CO2 incubator at 37° C. for 15 minutes. Separately, 10 mM stock solution of arachidonic acid in ethanol was diluted ten times in ethanol to prepare 1 mM solution of arachidonic acid. Arachidonic acid acts as a substrate. 10 μl of the 1 mM solution of arachidonic acid was added to each well and incubated at CO2 incubator at 37° C. for 30 minutes. The cell solution of each well was placed in a centrifuge test tube and centrifuged at 10,000 rpm at 4° C. for 5 minutes. The concentration of PGE2 in the collected cells and the supernatant was quantified by means of a monoclonal kit (Cayman Chemicals). The percentages of PGE2 inhibition in a group of the test compound-treated cells in relation to a group of the DMSO-treated cells were calculated. Based on the calculated values, the COX-1 inhibitory activities were evaluated.
as §1

These results are taken from patent US7473700B2, “1,2,4-triazole derivatives, processes for the preparation thereof, and pharmaceutical compositions containing the same” (CJ Corporation, priority 2002, dated 2009).

T2 sequence (P23219 24-599): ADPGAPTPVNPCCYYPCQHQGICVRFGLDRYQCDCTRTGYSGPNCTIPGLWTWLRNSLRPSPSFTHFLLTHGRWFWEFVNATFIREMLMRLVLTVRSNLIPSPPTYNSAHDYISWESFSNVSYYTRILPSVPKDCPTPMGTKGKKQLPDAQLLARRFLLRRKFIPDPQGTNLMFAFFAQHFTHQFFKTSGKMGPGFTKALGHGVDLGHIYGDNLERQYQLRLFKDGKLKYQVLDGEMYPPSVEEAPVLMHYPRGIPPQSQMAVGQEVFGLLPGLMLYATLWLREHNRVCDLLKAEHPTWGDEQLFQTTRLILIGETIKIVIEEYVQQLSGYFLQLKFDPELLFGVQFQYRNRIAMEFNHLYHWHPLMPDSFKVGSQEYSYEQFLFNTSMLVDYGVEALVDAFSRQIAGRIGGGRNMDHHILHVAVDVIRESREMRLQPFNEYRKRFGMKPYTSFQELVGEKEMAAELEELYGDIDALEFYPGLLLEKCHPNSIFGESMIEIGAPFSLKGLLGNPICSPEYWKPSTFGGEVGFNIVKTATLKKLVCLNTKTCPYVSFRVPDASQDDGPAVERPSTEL

For the compound `COc1ccc(-c2nc(O)nn2-c2ccc(S(N)(=O)=O)cc2)cc1` [Example 16, 4-[3-hydroxy-5-(4-methoxyphenyl)-1,2,4-triazole-1-yl]-benzenesulfonamide], the inhibition at 0.01 µM in experiment [1] came to 11.2%. In addition, in experiment [2], the inhibition at 1 µM was 35.5%.

For the compound `CCOc1ccc(-c2nc(O)nn2-c2ccc(S(N)(=O)=O)cc2)cc1` [Example 17, 4-[3-hydroxy-5-(4-ethoxyphenyl)-1,2,4-triazole-1-yl]-benzenesulfonamide], in experiment [1], the inhibition at 0.01 µM was determined as 10.5%. The inhibition at 1 µM in experiment [2] came to 48.8%.

As for `NS(=O)(=O)c1ccc(-n2nc(O)nc2-c2ccc(F)cc2)cc1` [Example 18, 4-[3-hydroxy-5-(4-fluorophenyl)-1,2,4-triazole-1-yl]-benzenesulfonamide], the inhibition at 0.01 µM in experiment [1] was 6.7%. Also, in experiment [2], the inhibition at 1 µM amounted to 19.5%.

Turning to `NS(=O)(=O)c1ccc(-n2nc(O)nc2-c2ccc(Br)cc2)cc1` [Example 19, 4-[3-hydroxy-5-(4-bromophenyl)-1,2,4-triazole-1-yl]-benzenesulfonamide], in experiment [1], the inhibition at 0.01 µM amounted to 12.3%. Moreover, the inhibition at 1 µM in experiment [2] amounted to 37.4%.

As to `COc1ccc(-c2nc(O)nn2-c2ccc(S(N)(=O)=O)cc2)cc1F` [Example 20, 4-[3-hydroxy-5-(3-fluoro-4-methoxyphenyl)-1,2,4-triazole-1-yl]-benzenesulfonamide], the inhibition at 0.01 µM in experiment [1] turned out to be 11%. Also, the inhibition at 1 µM in experiment [2] is 26.4%.

On to `NS(=O)(=O)c1ccc(-n2nc(S)nc2-c2ccccc2)cc1` [Example 21, 4-(3-mercapto-5-phenyl-1,2,4-triazole-1-yl)-benzenesulfonamide], for which the inhibition at 0.01 µM in experiment [1] worked out at 12.6%. The inhibition at 1 µM in experiment [2] is 25.7%.

Take `CS(=O)(=O)c1ccc(-n2nc(O)nc2-c2ccccc2)cc1` [Example 22, 1-(4-methanesulfonylphenyl)-5-phenyl-1H-1,2,4-triazole-3-ol]: the inhibition at 0.01 µM in experiment [1] is 36.4%. Moreover, the inhibition at 1 µM in experiment [2] worked out at 11.1%.

As to `COc1ccc(-c2nc(O)nn2-c2ccc(S(C)(=O)=O)cc2)cc1` [Example 23, 1-(4-methanesulfonylphenyl)-5-(4-methoxyphenyl)-1H-1,2,4-triazole-3-ol], the inhibition at 0.01 µM in experiment [1] is 35.1%. Further, the inhibition at 1 µM in experiment [2] came out at 13.2%.

As to `COc1ccc(-c2nc(OC)nn2-c2ccc(S(N)(=O)=O)cc2)cc1` [Example 24, 4-[3-methoxy-5-(4-methoxyphenyl)-1,2,4-triazole-1-yl]-benzenesulfonamide], the inhibition at 0.01 µM in experiment [1] was 31.2%. Moreover, the inhibition at 1 µM in experiment [2] was 16.4%.

As for `COc1nc(-c2ccccc2)n(-c2ccc(S(N)(=O)=O)cc2)n1` [Example 25, 4-(3-methoxy-5-phenyl-1,2,4-triazole-1-yl)-benzenesulfonamide], the inhibition at 0.01 µM in experiment [1] was 27.8%. Besides, the inhibition at 1 µM in experiment [2] turned out to be 23.2%.

On to `COc1nc(-c2ccc(F)cc2)n(-c2ccc(S(N)(=O)=O)cc2)n1` [Example 26, 4-[3-methoxy-5-(4-fluorophenyl)-1,2,4-triazole-1-yl]-benzenesulfonamide], for which the inhibition at 0.01 µM in experiment [1] is 13.5%. In addition, the inhibition at 1 µM in experiment [2] is 44.5%.

For `COc1nc(-c2ccc(Br)cc2)n(-c2ccc(S(N)(=O)=O)cc2)n1` [Example 27, 4-[3-methoxy-5-(4-bromophenyl)-1,2,4-triazole-1-yl]-benzenesulfonamide], the inhibition at 0.01 µM in experiment [1] came out at 11.5%. In experiment [2], the inhibition at 1 µM was determined as 11.2%.

With `COc1nc(-c2ccc(OC)c(F)c2)n(-c2ccc(S(N)(=O)=O)cc2)n1` [Example 28, 4-[3-methoxy-5-(3-fluoro-4-methoxyphenyl)-1,2,4-triazole-1-yl]-benzenesulfonamide], in experiment [1], the inhibition at 0.01 µM was 10.5%. Moreover, the inhibition at 1 µM in experiment [2] worked out at 21.2%.

For the compound `CSc1nc(-c2ccccc2)n(-c2ccc(S(N)(=O)=O)cc2)n1` [Example 29, 4-(3-methylthio-5-phenyl-1,2,4-triazole-1-yl)-benzenesulfonamide], in experiment [1], the inhibition at 0.01 µM turned out to be 11.1%. The inhibition at 1 µM in experiment [2] was 17.7%.
